According to US20230022803A1, “NOVEL CRYSTALLINE FORM OF GPR40 AGONIST” (ILDONG Pharmaceutical Co., Ltd., priority 2021, published 2023):
Values after ≈ are worked out from the molar mass of the structure shown. Like-named read-outs stand apart in the source and are kept apart here.

Experiments:
[1] = Gravimetric vapor sorption (GVS) analysis; type: physicochemical
From the text: The GVS analysis was made using an IGA Sorp instrument by Hiden Analytical. The instrumental parameters are listed below.
FIG. 6 illustrates the GVS analysis result.

[2] = Thermal analysis (TGA and DSC); type: physicochemical
From the text: The crystalline form Compound 1 prepared according to Example 1 was characterized by thermal gravimetric analysis (TGA) and differential scanning calorimetry (DSC). The TGA analysis was made by a TA Q5000 instrument. The DSC analysis was made by a TA Q2000 MDSC instrument. The instrumental parameters used are listed below.
FIGS. 2A and 2B show the results of the TGA and DSC analyses, respectively.

[3] = target: GPR40 (Homo sapiens, UniProt O14842); assay: Cell-based aequorin assay (agonistic activity); conditions: method and reference agonist of U.S. 2020/0223833
Experimental: The agonistic activity of the crystalline form of Compound 1 was measured by using the method described in U.S. Patent Application Publication No. 2020/0223833, which is incorporated herein by reference. The agonistic activity of the crystalline form of Compound 1 was higher than 70% of the activity of the reference agonist used in U.S. Patent Application Publication No. 2020/0223833, which falls within the category of the publication.

[4] = Visual solubility analysis in 13 solvents; type: physicochemical; conditions: organic solvent or mixture, thermodynamic from solid, read-out: Solubility (S)
Experimental: The solubility of the crystalline form Compound 1 was visually determined in 13 solvents. 5.0±0.2mg of the crystalline form Compound 1 was stirred at 20° C. with increasing volumes of solvents until a clear solution was visually observed.

GPR40, sequence (O14842 whole entry, species assumed): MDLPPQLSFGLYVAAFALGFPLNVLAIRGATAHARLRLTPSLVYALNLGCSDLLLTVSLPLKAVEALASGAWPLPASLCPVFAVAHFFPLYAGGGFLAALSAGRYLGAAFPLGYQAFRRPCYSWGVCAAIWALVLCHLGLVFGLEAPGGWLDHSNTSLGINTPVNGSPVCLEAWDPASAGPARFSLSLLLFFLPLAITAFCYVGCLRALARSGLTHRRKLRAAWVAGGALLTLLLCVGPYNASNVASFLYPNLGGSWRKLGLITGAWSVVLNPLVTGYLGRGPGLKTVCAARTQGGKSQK

2nd adsorption cycle (0-90% RH), adsorbed water ([1]; GVS isotherm, 25 °C, 0-90% RH): 0.135 % w/w
1st adsorption cycle (50-90% RH), adsorbed water ([1]; GVS isotherm, 25 °C, 50-90% RH): 0.119 % w/w
1st desorption cycle (90-0% RH), desorbed water ([1]; GVS isotherm, 25 °C, 90-0% RH): 0.127 % w/w
hygroscopic behavior ([1]; GVS, 25 °C): non-hygroscopic
weight gain ([1]; from dryness to 90% RH during the second adsorption cycle): less than 0.2 % w/w
thermal stability ([2]; TGA/DSC, heating rate 10° C./min): relatively high thermal stability
TGA weight loss ([2]; from ambient to 130° C.): 0.13 % w/w
agonistic activity relative to the activity of the reference agonist [3]: higher than 70%
solubility ([4]; 2-Butanone, 20° C.): > 100000 µg/mL
solubility ([4]; 2-Propanol, 20° C.): 5000 to 6000 µg/mL (≈ 9.97 to 12 mM)
solubility ([4]; Acetone, 20° C.): > 100000 µg/mL
solubility ([4]; Acetone/water 90:10, 20° C.): > 100000 µg/mL
solubility ([4]; Acetonitrile, 20° C.): 6000 to 8000 µg/mL (≈ 12 to 16 mM)
solubility ([4]; Dichloromethane, 20° C.): > 100000 µg/mL
solubility ([4]; Ethyl acetate, 20° C.): 50000 to 100000 µg/mL (≈ 99.7 to 199 mM)
solubility ([4]; Methanol, 20° C.): 6000 to 8000 µg/mL (≈ 12 to 16 mM)
solubility ([4]; Methanol/water 90:10, 20° C.): 1000 to 2000 µg/mL (≈ 1.99 to 3.99 mM)
solubility ([4]; Methyl tert-butyl ether, 20° C.): 2000 to 5000 µg/mL (≈ 3.99 to 9.97 mM)
solubility ([4]; Tetrahydrofuran, 20° C.): > 100000 µg/mL
solubility ([4]; Toluene, 20° C.): 10000 to 12000 µg/mL (≈ 19.9 to 23.9 mM)
solubility ([4]; i-Propyl acetate, 20° C.): 17000 to 25000 µg/mL (≈ 33.9 to 49.8 mM)
Structure (SMILES): CC#C[C@@H](CC(=O)O)c1ccc(O[C@@H]2CCc3c(-c4ccc(O[C@@H]5CCOC5)nc4)ccc(F)c32)cc1 [Crystalline Form Compound 1, (S)-3-(4-(((R)-7-Fluoro-4-(6-(((R)-tetrahydrofuran-3-yl)oxy)pyridin-3-yl)-2,3-dihydro-1H-inden-1-yl)oxy)phenyl)hex-4-ynoic acid]
